This is an account of results in patent publication US6114334A, “Piperazine derivatives as therapeutic agents” (Knoll Aktiengesellschaft, priority 1995, dated 2000).

Test [1] deals with T1, α2D-adrenoceptors (Rattus norvegicus, UniProt P22909).
T1 sequence (P22909 1-465): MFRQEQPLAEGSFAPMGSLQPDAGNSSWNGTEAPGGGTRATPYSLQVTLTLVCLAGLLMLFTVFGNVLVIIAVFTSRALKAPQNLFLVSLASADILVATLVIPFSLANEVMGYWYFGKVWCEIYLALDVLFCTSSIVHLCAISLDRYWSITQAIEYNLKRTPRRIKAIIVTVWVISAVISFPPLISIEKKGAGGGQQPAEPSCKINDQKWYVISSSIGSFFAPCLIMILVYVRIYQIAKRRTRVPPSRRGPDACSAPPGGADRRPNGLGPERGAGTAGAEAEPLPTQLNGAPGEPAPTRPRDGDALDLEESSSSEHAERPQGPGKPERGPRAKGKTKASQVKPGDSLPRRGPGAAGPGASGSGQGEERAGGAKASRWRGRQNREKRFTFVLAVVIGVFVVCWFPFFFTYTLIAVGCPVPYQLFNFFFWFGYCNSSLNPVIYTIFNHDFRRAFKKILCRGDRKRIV
Put plainly: inhibition of tritiated idazoxan binding to α2D-adrenoceptors in vitro. The following applies: rat frontal cortex; for pKi: [3H]idazoxan 1 nM, 0° C., 75 min. On the set-up: species or system rat (male Charles River CD, frontal cortical tissue).

For test [2], the target named is T2, α2A-adrenoceptors (Homo sapiens, UniProt P08913).
T2 construct: Human cerebral cortex obtained at post-mortem; from tissue; host or cells: human cerebral cortex, post-mortem
T2 sequence (P08913 1-465): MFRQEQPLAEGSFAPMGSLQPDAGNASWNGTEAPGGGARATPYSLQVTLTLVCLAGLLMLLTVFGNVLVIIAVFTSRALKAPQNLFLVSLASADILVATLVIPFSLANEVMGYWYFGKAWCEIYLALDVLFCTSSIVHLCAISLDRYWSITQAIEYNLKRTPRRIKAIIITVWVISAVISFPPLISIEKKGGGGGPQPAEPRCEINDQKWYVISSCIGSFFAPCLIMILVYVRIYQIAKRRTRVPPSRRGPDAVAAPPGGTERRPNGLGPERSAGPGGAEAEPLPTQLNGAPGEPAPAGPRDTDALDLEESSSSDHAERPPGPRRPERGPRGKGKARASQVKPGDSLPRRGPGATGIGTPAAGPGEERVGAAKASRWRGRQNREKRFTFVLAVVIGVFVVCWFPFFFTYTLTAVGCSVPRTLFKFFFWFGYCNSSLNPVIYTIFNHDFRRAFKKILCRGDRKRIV
Put plainly: inhibition of tritiated RX 821002 binding to α2A-adrenoceptors in vitro. On the set-up: species or system human (cerebral cortex post-mortem). The note with it: human cerebral cortex; for inhibition at 1 µM: 10^-6 M, [3H]RX 821002, read-out: % displacement at 10^-6 M, α2A; for pKi: [3H]RX 821002 0.2 nM, 0° C., 75 min. As to the method: Human cerebral cortex obtained at post-mortem was homogenised in ice-cold 0.25M sucrose (1:30 w/v) and centrifuged at 1,000 g at 4° C. for 12 minutes. The supernatant was stored on ice and the pellet was rehomogenised in 0.25M sucrose (1:15 w/v) and centrifuged at 850 g at 4° C. for 12 minutes. Combined supernatants were diluted with 5 mM Tris-HCl (pH 7.5) containing 5 mM ethylenediamine tetraacetic acid (EDTA), readjusted to pH 7.5 (at 25° C.) with 1M sodium hydroxide to 1:80 w/v, and centrifuged at 11,000 g at 4° C. for 10 minutes. The resulting pellet was resuspended in 50 mM Tris-HCl (pH 7.5) containing 5.68 mM L-ascorbic acid and 0.5 mM EDTA, readjusted to pH 7.5 (at 25° C.) with 1M sodium hydroxide to 1:80 w/v, and centrifuged at 11,000 g for 10 minutes. The pellet was stored at -80° C. On the day of the assay the pellet was thawed, resuspended in 50 mM Tris-HCl (pH 7.5) containing 5.68 mM L-ascorbic acid and 5 mM EDTA to 1:80 w/v and centrifuged at 11,000 g for 10 minutes. The final pellet was resuspended in 50 mM Tris-HCl (pH 7.5) containing 5.68 mM L-ascorbic acid and 5 mM EDTA (equivalent to 25 mg wet weight of tissue/ml).
Aliquots (400 μl; equivalent to 10 mg wet weight of tissue/tube) of this suspension were added to tubes containing the ligand (50 μl; 0.2 nM) and distilled water (50 μl; total binding) or phentolamine (50 μl; 50 μM; non-specific binding) or test compound (50 μl; at a single concentration of 10^-6 M or at 10 concentrations ranging from 10^-11 -10^-3 M). The ligand was tritiated RX 821002 (2-(2-methoxy-1,4-[6,7(n)-^3 H]benzodioxan-2-yl)-2-imidazoline) and the mixture was incubated at 0° C. for 75 minutes before the incubation was terminated by rapid filtration.
The filters were washed with ice-cold Tris-HCl buffer and dried. The filters were punched out into vials, scintillation fluid added and radioactivity determined by liquid scintillation counting. The percentage displacement of specific binding of the tritiated ligand was calculated for the single concentration (10^-6 M) of test compound. Displacement curves were then produced for those compounds which displaced ≥50% of specific binding of the tritiated ligand at 10^-6 M using a range of concentrations of the compound. The concentration which gave 50% inhibition of specific binding (IC50) was obtained from the curve. The inhibition coefficient Ki was then calculated using the formula [formula] in which [ligand] is the concentration of the tritiated ligand used and KD is the equilibrium dissociation constant for the ligand.

Test [3] deals with α1-adrenoceptors. Put plainly: inhibition of 7-methoxy-[3H]prazosin binding to α1-adrenoceptors in vitro. More on the design: species or system rat (male Charles River CD, whole cortical tissue). The note with it: rat whole cortex, 30 min; for pKi: 7-methoxy-[3H]prazosin 0.1 nM, 30° C. The procedure, abridged:
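Male CD rat cortical membranes in 50 mM Tris-HCl pH 7.6 were incubated 30 min at 30 °C with 7-methoxy-[3H]prazosin (0.1 nM as added), with 5 μM phentolamine (as added) defining non-specific binding, then filtered and counted. Compounds were tested at 10^-6 M for % displacement or at 10^-11–10^-3 M for IC50, and Ki was derived from IC50, ligand concentration and KD.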

The target of test [4] is D2 dopamine receptors (Rattus norvegicus, UniProt P61169). Put plainly: inhibition of tritiated (S)-sulpiride binding to D2 dopamine receptors in vitro. The following applies: rat striatum, tritiated (S)-sulpiride 1 nM, 4° C., 40 min. On the set-up: species or system rat (male Charles River CD, striatal tissue).
D2 dopamine receptors, sequence (P61169 whole entry): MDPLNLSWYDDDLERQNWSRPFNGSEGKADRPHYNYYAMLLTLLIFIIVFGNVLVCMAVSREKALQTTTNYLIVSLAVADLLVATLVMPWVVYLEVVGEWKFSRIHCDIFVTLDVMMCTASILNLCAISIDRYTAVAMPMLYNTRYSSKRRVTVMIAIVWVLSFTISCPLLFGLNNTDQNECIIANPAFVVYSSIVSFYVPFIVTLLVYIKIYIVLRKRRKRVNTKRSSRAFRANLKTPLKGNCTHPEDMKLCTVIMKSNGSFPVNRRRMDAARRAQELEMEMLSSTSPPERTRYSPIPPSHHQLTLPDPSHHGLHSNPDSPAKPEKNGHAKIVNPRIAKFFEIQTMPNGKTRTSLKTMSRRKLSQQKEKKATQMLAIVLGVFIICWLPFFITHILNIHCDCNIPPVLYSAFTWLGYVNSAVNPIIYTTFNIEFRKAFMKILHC
The target in test [5] is T3, 5-HT1A receptors (Rattus norvegicus, UniProt P19327).
T3 sequence (P19327 1-422): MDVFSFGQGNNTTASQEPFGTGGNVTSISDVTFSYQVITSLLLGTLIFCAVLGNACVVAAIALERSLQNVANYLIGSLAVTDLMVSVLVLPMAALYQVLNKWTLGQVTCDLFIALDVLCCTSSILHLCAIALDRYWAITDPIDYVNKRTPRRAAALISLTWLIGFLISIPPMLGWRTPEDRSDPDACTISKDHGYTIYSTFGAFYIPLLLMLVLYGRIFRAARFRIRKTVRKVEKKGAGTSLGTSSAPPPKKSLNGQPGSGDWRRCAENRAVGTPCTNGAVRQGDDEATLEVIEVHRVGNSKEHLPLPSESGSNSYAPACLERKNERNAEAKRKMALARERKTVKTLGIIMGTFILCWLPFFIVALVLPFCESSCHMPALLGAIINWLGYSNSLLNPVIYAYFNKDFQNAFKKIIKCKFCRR
The test is described as follows: inhibition of [3H]8-OH-DPAT binding to 5-HT1A receptors in vitro. More on the design: species or system rat (male Sprague-Dawley, hippocampal tissue). The note with it: rat hippocampus; for pKi: [3H]8-OH-DPAT 2 nM, 25° C., 30 min.
Procedure: Hippocampal tissue from the brains of male Sprague-Dawley rats (Charles River; weight range 150-250 g) was homogenised in ice-cold 50 mM Tris-HCl buffer (pH 7.7 when measured at 25° C., 1:40 w/v) and centrifuged at 30,000 g at 4° C. for 10 minutes. The pellet was rehomogenised in the same buffer, incubated at 37° C. for 10 minutes and centrifuged at 30,000 g at 4° C. for 10 minutes. The final pellet was resuspended in 50 mM Tris-HCl buffer (pH 7.7) containing 4 mM CaCl2. 0.1% L-ascorbic acid and 10 μM pargyline hydrochloride (equivalent to 6.25 mg wet weight of tissue/ml) and used immediately in the binding assay. Aliquots (400 μl; equivalent to 2.5 mg wet weight of tissue/tube) of this suspension were added to tubes containing the ligand (50 μl; 2 nM) and distilled water (50 μl; total binding) or 5-HT (50 μl; 10 μM; non-specific binding) or test compound (50 μl; at a single concentration of 10^-6 M or at 10 concentrations ranging from 10^-11 -10^-3 M). The ligand was [^3 H]8-hydroxy-2-(dipropylamino)tetralin ([^3 H]8-OH-DPAT) and the mixture was incubated at 25° C. for 30 minutes before the incubation was terminated by rapid filtration.

pKi: −log10 of the molar value.

In the case of `Nc1c(CN2CCN(c3cccc4c3OCCO4)CC2)c(-c2ccccc2)nn1-c1ccccc1` [Example 12, 5-Amino-4-[4-(1,4-benzodioxan-5-yl)piperazin-1-ylmethyl]-1,3-diphenylpyrazole], the pKi in test [1] is 6.72; in test [3] it was 7.39; in test [4], below 6.30; in test [5] it was 7.72. In addition, in test [2], the inhibition at 1 µM amounted to 99%.
The like results for `Cn1nc(-c2ccccc2)c(CN2CCN(c3cccc4c3OCCO4)CC2)c1N` [Example 13, 5-Amino-4-[4-(1,4-benzodioxan-5-yl)piperazin-1-ylmethyl]-1-methyl-3-phenylpyrazole] were, in that order, 6.81, 7.24, below 6.30, 7.68 and 95%.
Consider `Nc1c(CN2CCN(c3cccc(Cl)c3)CC2)c(C2CC2)nn1-c1ccccc1` [Example 14, 5-Amino-4-[4-(3-chlorophenyl)piperazin-1-ylmethyl]-3-cyclopropyl-1-phenylpyrazole], for which the inhibition at 1 µM in test [1] (10^-6 M, [3H]idazoxan, read-out: % displacement at 10^-6 M, α2D) amounted to 81%; in test [2], 99%; in test [5] (10^-6 M, [3H]8-OH-DPAT, read-out: % displacement at 10^-6 M, 5-HT1A) it was 74%. Also, the “% displacement at 10^-6 M, α1” value in test [3] (10^-6 M, 7-methoxy-[3H]prazosin, 1 µM) is recorded as 80%. The molecule further had a negative-log Ki (pKi) in test [4] below 6.30.
With `Nc1c(CN2CCN(c3cccc4c3OCCO4)CC2)c(C2CC2)nn1-c1ccccn1` [Example 16, 5-Amino-4-[4-(1,4-benzodioxan-5-yl)piperazin-1-ylmethyl]-3-cyclopropyl-1-(2-pyridyl)pyrazole], the pKi in test [1] is 8.01; in test [3], 7.46; in test [4] it was 7.07; in test [5], 8.39. Besides, the inhibition at 1 µM in test [2] was found to be 100%.
The corresponding values for `COc1ccc(-n2nc(C3CC3)c(CN3CCN(c4cccc5c4OCCO5)CC3)c2N)cc1` [Example 17, 5-Amino-4-[4-(1,4-benzodioxan-5-yl)piperazin-1-ylmethyl]-3-cyclopropyl-1-(4-methoxyphenyl)pyrazole] are 7.21, 7.57, below 6.30, 7.23 and 86%.
The like results for `Cc1ccccc1N1CCN(Cc2c(C3CC3)nn(-c3ccccc3)c2N)CC1` [Example 19, 5-Amino-3-cyclopropyl-4-[4-(2-methylphenyl)piperazin-1-ylmethyl]-1-phenylpyrazole] were, in that order, 8.31, 7.42, below 6.30, 6.59 and 100%.
The like results for `Nc1c(CN2CCN(c3cccc4c3OCCO4)CC2)c(C2CC2)nn1-c1ccc(Cl)cc1` [Example 20, 5-Amino-4-[4-(1,4-benzodioxan-5-yl)piperazin-1-ylmethyl]-1-(4-chlorophenyl)-3-cyclopropylpyrazole] were, in that order, 7.82, 7.72, 6.35, 7.21 and 89%.
Turning to `Nc1c(CN2CCN(c3cccc4c3OCCO4)CC2)c(C2CCCC2)nn1-c1ccccc1` [Example 21, 5-Amino-4-[4-(1,4-benzodioxan-5-yl)piperazin-1-ylmethyl]-3-cyclopentyl-1-phenylpyrazole], the pKi in test [1] was 7.49; in test [3], 7.68; in test [4], 6.35; in test [5] it was 7.24. Moreover, in test [2], the inhibition at 1 µM was 89%.
The like results for `CC(C)(C)c1nn(-c2ccccc2)c(N)c1CN1CCN(c2cccc3c2OCCO3)CC1` [Example 22, 5-Amino-4-[4-(1,4-benzodioxan-5-yl)piperazin-1-ylmethyl]-3-tert-butyl-1-phenylpyrazole] were, in that order, below 6.30, below 6.30, below 6.30, 7.54 and 66%.
The corresponding values for `CC(C)Oc1ccccc1N1CCN(Cc2c(C3CC3)nn(-c3ccccc3)c2N)CC1` [Example 23, 5-Amino-3-cyclopropyl-4-[4-(2-isopropoxyphenyl)piperazin-1-ylmethyl]-1-phenylpyrazole] are 8.77, 7.77, 6.96, 7.66 and 100%.
Regarding `CC(C)(C)n1nc(C2CC2)c(CN2CCN(c3cccc4c3OCCO4)CC2)c1N` [Example 24, 5-Amino-4-[4-(1,4-benzodioxan-5-yl)piperazin-1-ylmethyl]-1-tert-butyl-3-cyclopropylpyrazole], the pKi in test [1] is 7.89; in test [2], 7.41; in test [3] it was 6.75; in test [4] it was 6.37; in test [5], 7.68.
The corresponding values for `Cn1nc(C2CC2)c(CN2CCN(c3cccc4c3OCCO4)CC2)c1N` [Example 25, 5-Amino-4-[4-(1,4-benzodioxan-5-yl)piperazin-1-ylmethyl]-3-cyclopropyl-1-methylpyrazole] are 7.46, 7.85, 6.90, below 6.30 and 7.82.
